From patent publication US12679860B2, “C-terminal HSP90 inhibitors” (UNIVERSITY OF KANSAS, priority 2012, dated 2026)

Assays:
[1] = test system: embryonic dorsal root ganglion (DRG) sensory neuron cultures; assay: Glucotoxicity assay: cell viability (calcein AM) of DRG sensory neurons under glucose-induced toxicity; type: cell-based, Sprague Dawley rat; conditions: for viability at 1 µM / EC50: Rattus norvegicus, Neuron; for viability at 1 µM: glucose + DMSO was 54% ± 2; for EC50: 0.1-1000 nM novologue overnight, then 4 hrs of hyperglycemia, mean±SEM (n=3-8), read-out: EC50 for protection against glucose-induced toxicity
Protocol: DRG sensory neurons were incubated in the absence or presence of 0.1-1000 nM of the indicated novologue overnight and then subjected to 4 hrs of hyperglycemia.
The ganglia were sedimented at 1,000×g for 5 min, resuspended in growth media [phenol red free Neurobasal medium (Gibco, Grand Island, NY) containing 25 mM glucose, 1X B-27 additive, 50 ng/ml NGF (Harlan Bioscience, Indianapolis, IN), 4 mM glutamine, 100 U/mL penicillin and 100 μg/mL streptomycin] and triturated with a fire-polished glass pipette. The cells were cultured on collagen-coated (0.1 mg/mL collagen followed by overnight air drying in a laminar flow hood) black-walled 96-well plates (Corning Incorporated Corning, NY) at a seeding density of 2-3×10^4 cells per well. DRG neurons were re-fed the next day with fresh growth media containing 40 μM fluorodeoxyuridine and 10 μM cytosine β-D-arabinoside (both from Sigma Aldrich, St. Louis, MO) for 2 days to remove proliferating cells. Experiments were performed on DRG neurons on the third day in culture after placing the cells in fresh growth medium. […]
DRG neurons were incubated overnight with the test compounds in the presence of Neurobasal medium, 50 ng/ml NGF and antibiotics only. In order to monitor the efficiency of the compounds in protecting DRG neurons against glucotoxicity, Calcein AM (Invitrogen, Carlsbad, CA) was utilized to measure cell viability. Hydrolysis of calcein AM to a fluorescent product can only occur in live cells. Excess glucose was added to the cultures for 4 hrs and cell viability was measured by incubating the cells with 2 μM calcein AM for 30 min in the dark at 37° C. Fluorescence was then measured using a plate reader with excitation and emission wavelengths set to 485 nm and 520 nm, respectively. The arbitrary fluorescence readings were normalized to the total amount of protein from each respective well of the neuronal cultures. The protein concentrations in each well were determined using the DC protein assay (Bio-Rad). Significant differences in the efficacy of the novologues for increasing cell viability were determined using a Kruskal-Wallis non-parametric ANOVA and Dunn's post-test.

Hsp70 = assay: Immunoblot analysis of induction of Hsp70 in DRG sensory neurons; type: cell-based, Sprague Dawley rat; conditions: 24 hours incubation, then 4 hours of glucotoxic stress; Hsp70 normalized to β-actin
Protocol: DRG sensory neurons were incubated in the presence of DMSO (Cntrl) or 10-1000 nM of the indicated novologue overnight and then subjected to 4 hrs of hyperglycemia. The neurons were harvested and Hsp70 and β-actin levels were determined by immunoblot analysis. Band intensity was quantified using Image J, Hsp70 expression was normalized to the level of β-actin.
Since it was previously shown that the cytoprotective activity manifested by KU-32 requires Hsp70, the ability of 11b and 11n to induce Hsp70 was determined relative to KU-32. Increasing concentrations of KU-32, 11n, and 11b were incubated with DRG sensory neurons for 24 hours before the cells were subjected to 4 hours of glucotoxic stress. Hsp70 levels were examined by performing immunoblot analysis with the cellular lysates (FIG. 5). 11n and 11b induced Hsp70 levels at similar concentrations (10 nM) as those needed for neuroprotection.
DRG from embryonic day 15-18 Sprague Dawley rat pups were harvested into Leibovitz's L15 medium (L15) and dissociated with 0.25% trypsin for 30 min at 37° C. […]

[2] = Table 2 cyclohexene analogues, 1 μM novologue + 20 mM excess glucose
[3] = Table 1, 1 μM of each novologue + 20 mM excess glucose
[4] = 1 μM novologue + 20 mM excess glucose

SMILES | viability at 1 µM [1, 3] [%] | protection against glucose-induced toxicity (in words) [1, 4] | other results
CO[C@@H]1[C@@H](O)[C@@H](O)[C@H](Oc2ccc(C3CC=CCC3NC(C)=O)c(-c3cccc(F)c3)c2)OC1(C)C (mixture of isomers) [20a, N-(4′-(((3R,4S,5R)-3,4-dihydroxy-5-methoxy-6,6-dimethyltetrahydro-2H-pyran-2-yl)oxy)-3″-fluoro-1,2,3,6-tetrahydro-[1,1′: 2′,1″-terphenyl]-2-yl)acetamide] |  |  | viability at 1 µM [1, 2]: 78%
CO[C@@H]1[C@@H](O)[C@@H](O)[C@H](Oc2ccc(C3CC=CCC3NC(C)=O)c(-c3cccc(C(F)(F)F)c3)c2)OC1(C)C (mixture of isomers) [20b, N-(4′-(((3R,4S,5R)-3,4-dihydroxy-5-methoxy-6,6-dimethyltetrahydro-2H-pyran-2-yl)oxy)-3″-(trifluoromethyl)-1,2,3,6-tetrahydro-[1,1′: 2′,1″-terphenyl]-2-yl) acetamide] |  |  | viability at 1 µM [1, 2]: 69%
CO[C@@H]1[C@@H](O)[C@@H](O)C(Oc2ccc(CCNC(C)=O)c(-c3ccccc3)c2)OC1(C)C (stereo partly drawn) [11a, N-(2-(5-(((3R,4S,5R)-3,4-dihydroxy-5-methoxy-6,6-dimethyltetrahydro-2H-pyran-2-yl)oxy)-[1,1′-biphenyl]-2-yl)ethyl)acetamide] | 76 |  | 
CO[C@@H]1[C@@H](O)[C@@H](O)C(Oc2ccc(CCNC(C)=O)c(-c3cccc(F)c3)c2)OC1(C)C (stereo partly drawn) [11b, N-(2-(5-(((3R,4S,5R)-3,4-dihydroxy-5-methoxy-6,6-dimethyltetrahydro-2H-pyran-2-yl)oxy)-3′-fluoro-[1,1′-biphenyl]-2-yl)ethyl)acetamide] | 95 | showed significant protection against glucotoxicity | EC50 [1]: 13 ± 3.6 nM; concentration at which Hsp70 levels were induced (Hsp70): 10 nM
CO[C@@H]1[C@@H](O)[C@@H](O)C(Oc2ccc(CCNC(C)=O)c(-c3ccc(F)cc3)c2)OC1(C)C (stereo partly drawn) [11c, N-(2-(5-(((3R,4S,5R)-3,4-dihydroxy-5-methoxy-6,6-dimethyltetrahydro-2H-pyran-2-yl)oxy)-4′-fluoro-[1,1′-biphenyl]-2-yl)ethyl)acetamide] | 75 | showed significant protection against glucose-induced cell death | 
CO[C@@H]1[C@@H](O)[C@@H](O)C(Oc2ccc(CCNC(C)=O)c(-c3ccccc3Cl)c2)OC1(C)C (stereo partly drawn) [11d, N-(2-(2′-chloro-5-(((3R,4S,5R)-3,4-dihydroxy-5-methoxy-6,6-dimethyltetrahydro-2H-pyran-2-yl)oxy)-[1,1′-biphenyl]-2-yl)ethyl)acetamide] | 71 | showed significant protection against glucose-induced cell death | 
CO[C@@H]1[C@@H](O)[C@@H](O)C(Oc2ccc(CCNC(C)=O)c(-c3cccc(Cl)c3)c2)OC1(C)C (stereo partly drawn) [11e, N-(2-(3′-chloro-5-(((3R,4S,5R)-3,4-dihydroxy-5-methoxy-6,6-dimethyltetrahydro-2H-pyran-2-yl)oxy)-[1,1′-biphenyl]-2-yl)ethyl)acetamide] | 90 | showed significant protection against glucotoxicity | 
CO[C@@H]1[C@@H](O)[C@@H](O)C(Oc2ccc(CCNC(C)=O)c(-c3cccc(C(F)(F)F)c3)c2)OC1(C)C (stereo partly drawn) [11f, N-(2-(5-(((3R,4S,5R)-3,4-dihydroxy-5-methoxy-6,6-dimethyltetrahydro-2H-pyran-2-yl)oxy)-3′-(trifluoromethyl)-[1,1′-biphenyl]-2-yl)ethyl)acetamide] | 83 | showed significant protection against glucotoxicity | EC50 [1]: 188 ± 43.5 nM
CO[C@@H]1[C@@H](O)[C@@H](O)C(Oc2ccc(CCNC(C)=O)c(-c3ccc(C(F)(F)F)cc3)c2)OC1(C)C (stereo partly drawn) [11g, N-(2-(5-(((3R,4S,5R)-3,4-dihydroxy-5-methoxy-6,6-dimethyltetrahydro-2H-pyran-2-yl)oxy)-4′-(trifluoromethyl)-[1,1′-biphenyl]-2-yl)ethyl)acetamide] | 74 | showed significant protection against glucose-induced cell death | 
CO[C@@H]1[C@@H](O)[C@@H](O)C(Oc2ccc(CCNC(C)=O)c(-c3ccccc3SC)c2)OC1(C)C (stereo partly drawn) [11h, N-(2-(5-(((3R,4S,5R)-3,4-dihydroxy-5-methoxy-6,6-dimethyltetrahydro-2H-pyran-2-yl)oxy)-2′-(methylthio)-[1,1′-biphenyl]-2-yl)ethyl)acetamide] | 83 |  | EC50 [1]: 384 ± 108 nM; EC50 fold greater than KU-32 ([1]; protection against glucose-induced toxicity): approximately 1.6 fold
COc1ccccc1-c1cc(OC2OC(C)(C)[C@H](OC)[C@@H](O)[C@H]2O)ccc1CCNC(C)=O (stereo partly drawn) [11i, N-(2-(5-(((3R,4S,5R)-3,4-dihydroxy-5-methoxy-6,6-dimethyltetrahydro-2H-pyran-2-yl)oxy)-2′-methoxy-[1,1′-biphenyl]-2-yl)ethyl)acetamide] | 92 |  | 
COc1cccc(-c2cc(OC3OC(C)(C)[C@H](OC)[C@@H](O)[C@H]3O)ccc2CCNC(C)=O)c1 (stereo partly drawn) [11j, N-(2-(5-(((3R,4S,5R)-3,4-dihydroxy-5-methoxy-6,6-dimethyltetrahydro-2H-pyran-2-yl)oxy)-3′-methoxy-[1,1′-biphenyl]-2-yl)ethyl)acetamide] | 78 |  | 
CO[C@@H]1[C@@H](O)[C@@H](O)C(Oc2ccc(CCNC(C)=O)c(-c3cccc(C)c3)c2)OC1(C)C (stereo partly drawn) [11k, N-(2-(5-(((3R,4S,5R)-3,4-dihydroxy-5-methoxy-6,6-dimethyltetrahydro-2H-pyran-2-yl)oxy)-3′-methyl-[1,1′-biphenyl]-2-yl)ethyl)acetamide] | 82 |  | 
CO[C@@H]1[C@@H](O)[C@@H](O)C(Oc2ccc(CCNC(C)=O)c(-c3cccc(CN4CCOCC4)c3)c2)OC1(C)C (stereo partly drawn) [11l, N-(2-(5-(((3R,4S,5R)-3,4-dihydroxy-5-methoxy-6,6-dimethyltetrahydro-2H-pyran-2-yl)oxy)-3′-(morpholinomethyl)-[1,1′-biphenyl]-2-yl)ethyl)acetamide] | 83 |  | 
CO[C@@H]1[C@@H](O)[C@@H](O)C(Oc2ccc(CCNC(C)=O)c(-c3ccc(O)cc3)c2)OC1(C)C (stereo partly drawn) [11m, N-(2-(5-(((3R,4S,5R)-3,4-dihydroxy-5-methoxy-6,6-dimethyltetrahydro-2H-pyran-2-yl)oxy)-4′-hydroxy-[1,1′-biphenyl]-2-yl)ethyl)acetamide] | 67 |  | 
CO[C@@H]1[C@@H](O)[C@@H](O)C(Oc2ccc(CCNC(C)=O)c(-c3cccnc3)c2)OC1(C)C (stereo partly drawn) [11o, N-(4-(((3R,4S,5R)-3,4-dihydroxy-5-methoxy-6,6-dimethyltetrahydro-2H-pyran-2-yl)oxy)-2-(pyridin-3-yl)phenethyl)acetamide] | 61 | unable to protect against glucose-induce toxicity | 
CO[C@@H]1[C@@H](O)[C@@H](O)C(Oc2ccc(CCNC(C)=O)c(-c3ccncc3)c2)OC1(C)C (stereo partly drawn) [11p, N-(4-(((3R,4S,5R)-3,4-dihydroxy-5-methoxy-6,6-dimethyltetrahydro-2H-pyran-2-yl)oxy)-2-(pyridin-4-yl)phenethyl)acetamide] | 81 |  | 
